In ChEMBL document CHEMBL5727968, “3-phenyl-pyrazole derivatives as modulators of the 5-HT2A serotonin receptor useful for the treatment of disorders related thereto” (2020) one finds IC50 data, which are given here for three compounds.

The structures appear in SMILES notation.

The target in this test is 5-hydroxytryptamine receptor 2A (Homo sapiens, UniProt P28223). The test can be described thus: [125I]DOI Radioligand Binding Assay: Radioligand binding assays for human 5-HT2A receptor was conducted using the 5-HT2 agonist [125I]DOI as radioligand. To define nonspecific binding, 10 μM DOI was used for all assays. For competitive binding studies, 0.5 nM [125I]DOI was used and compounds were assayed over a range of 0.01 nM to 10 μM. Assays were conducted in a total volume of 200 μl in 96-well Perkin Elmer GF/C filter plates in assay buffer (50 mM Tris-HCl, pH 7.4, 0.5 mM EDTA, 5 mM MgCl2, and 10 μM pargyline). Assay incubations were performed for 60 min at room temperature and were terminated by rapid filtration under vacuum pressure of the reaction mixture over Whatman GF/C glass fiber filters presoaked in 0.5% PEI using a Brandell cell harvestor. Filters were then washing several times with ice-cold wash buffer (50 mM Tris-HCl, pH 7.4). Plates were then dried at room temperature and counted in a Wallac microBeta scintillation counter.
5-hydroxytryptamine receptor 2A, sequence (P28223 whole entry): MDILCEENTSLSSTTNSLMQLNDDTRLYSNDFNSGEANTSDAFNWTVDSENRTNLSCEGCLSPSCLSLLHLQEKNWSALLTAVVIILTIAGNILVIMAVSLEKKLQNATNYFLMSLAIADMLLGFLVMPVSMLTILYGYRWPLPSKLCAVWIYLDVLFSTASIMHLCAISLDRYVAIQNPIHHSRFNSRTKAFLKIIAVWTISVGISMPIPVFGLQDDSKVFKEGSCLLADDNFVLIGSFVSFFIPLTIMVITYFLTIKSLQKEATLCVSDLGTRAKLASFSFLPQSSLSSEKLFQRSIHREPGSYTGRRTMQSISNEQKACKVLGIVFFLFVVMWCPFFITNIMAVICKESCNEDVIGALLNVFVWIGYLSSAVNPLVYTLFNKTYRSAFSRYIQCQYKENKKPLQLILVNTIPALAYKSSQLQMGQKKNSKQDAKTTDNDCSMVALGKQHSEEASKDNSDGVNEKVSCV
As to `Cn1nccc1-c1cc(NC(=O)NCc2ccc(Cl)cc2)ccc1OCCN1CCCC1`, the IC50 stood at 10.2 nM.
As for `CCC(C)OC(=O)Nc1ccc(OCCN2CCCC2)c(-c2c(Br)cnn2C)c1` (stereo not drawn), the IC50 came out at 1.1 nM.
As to `Cn1nccc1-c1cc(NC(=O)Cc2ccc(F)cc2)ccc1OCCN1CCCCC1`, the IC50 came out at 13.7 nM.

Broadly, the IC50 is the midpoint of a concentration-inhibition curve.
